Read-outs that look alike come from different tables or passages of the source.
Tests used:
[1] = test system: MCF-7; assay: MTS antiproliferative assay, MCF-7 (with or without added metal ions); type: cell-based, human
Method: (§1) The cells were seeded in 96-well plates (Nunc) at a density of 3,500 cells/well (HCT116 and MCF-7) and 3,000 cells/well (NHDF) and incubated at 37° C for 24 h. The assay was performed following a 96 h incubation with varying concentrations of the compounds that were being tested. Then, 20 µL of CellTiter 96® AQueous One Solution-MTS (Promega) was added to each well (with 100 µL DMEM without phenol red) and incubated for 1 h at 37° C. The optical densities of the samples were analyzed at 490 nm using a multi-plate reader (Synergy 4, Bio Tek). Results were expressed as a percentage of the control and calculated as the inhibitory concentration (IC50) values (using GraphPad Prism 5). The IC50 parameter was defined as the compound concentration that was necessary to reduce the proliferation of cells to 50% of the untreated control. Each individual compound was tested in triplicate in a single experiment with each experiment being repeated three or four times.
(§2) The HCT116 and MCF-7 cells were seeded in 96-well plates (Nunc) at a density of 3,500 cells/well and incubated at 37° C for 24 h. The MTS assay was performed following a 96 h incubation with varying concentrations of the tested compounds. Additionally, a 20 µM solution of CuSO4, FeSO4 or FeCl3 was added into wells with the tested compounds. The results were expressed as a percentage of the control and calculated as the inhibitory concentration (IC50) values using GraphPad Prism 5. Each individual compound was tested in triplicate in a single experiment with each experiment being repeated three times.

[2] = test system: HCT116; assay: MTS antiproliferative assay, HCT116 (with or without added metal ions); type: cell-based, human
Method: as §1, §2

[3] = test system: HCT116; parameters: method as in PMID 25329549; details: 96 h incubation, MTS; cited from earlier work
[4] = test system: HCT116 cells; assay: Time dependent measurement of ROS level; type: cell-based, human; details: 1 µM; 3, 6, 9, 12, 24 h
Method: To determine the intracellular levels of ROS, HCT116 cells were seeded onto black 96-well plates (Corning) at a density of 9,000 cells/well and incubated at 37° C. After an overnight incubation, the solutions of the tested compounds: 1a-c, 2 a-b, 3 a-c, Dp44mT (1 μM) and DOX (5 μM) were added and incubated for 3, 6, 9, 12, and 24 h in a kinetic experiment. The generation of ROS was measured using a CellROX® Green Reagent (Molecular Probes™). Additionally, the quantity of cells in each well was determined using Hoechst 33342 (Molecular Probes™). The solutions of the tested compounds were removed and 100 µL of CellROX Green Reagent and Hoechst 33342 at a final concentration of 5 μM were added to each well. Then, the cells were incubated for 30 min at 37° C. The fluorescence was measured using a multi-plate reader (Synergy 4, Bio Tek) at 485 nm excitation and a 520 nm emission for CellROX Green Reagent and a 345 nm excitation laser and a 485 nm emission filter for Hoechst 33342. The experiments were performed three to four times. ROS levels were expressed as the percentage of the control cells level.

[5] = test system: MnSOD; assay: mRNA expression (Real-Time PCR) of MnSOD; type: cell-based, human; details: HCT116, TSC 1 µM, 12 or 24 h
Method: (§3) The HCT116 cells were seeded in 3 cm Petri dishes (Nunc) at a density of 0.5·10^6 cells/well and incubated overnight. Next, the medium was removed and solutions of TSC (1 μM) and DOX (5 μM) were added. After 12 or 24 h, total RNA was isolated from the cells using TRIzol Reagent (Ambion) according to the manufacturer’s instructions. cDNA synthesis was performed with 5 μg of total RNA using a GoScript™ Reverse Transcriptase kit (Promega) and Oligo(dT)23 Primers (Sigma). The Real-Time PCR was performed with a CTX96 Touch™ Real-Time PCR Detection System (Biorad) in a 20 μL reaction volume. The reaction consisted of PowerUp™ SYBR® Green Master Mix (Applied Biosystems), a primer pair mix (0.5 μM each) and 1 μL of cDNA. All primer pair sequences were purchased from Sigma-Aldrich and are listed in Supplementary Table 2. The experiment was performed under the following conditions: initial denaturation at 95° C for 120 sec; followed by 40 denaturation cycles at 95° C, 15 sec; annealing (primer-specific temperature for 30 sec) and extension at 72° C for 60 sec. Data was analyzed based on a comparison of the expression of the target genes to a reference gene – β-actin, using the 2^–ΔΔCT method. The experiments were performed at least three times.

[6] = test system: calf-thymus DNA (CT-DNA); assay: Intercalation, absorption spectra with CT-DNA; type: binding; details: for % hypochromism / Changes in absorbance / Δε: bound to CT-DNA; for blue/red shift: wavelengths of maximum absorption, compound alone vs DNA-bound
Method: For the DNA binding studies, Calf-thymus DNA (CT-DNA) was purchased from Sigma Aldrich. The lyophilized CT-DNA was dissolved in 10 mM Tris-HCl, pH 7.9, mixed gently and left overnight at 4° C. The purity of the CT-DNA solution was determined by measuring the ratio of UV absorbance at 260 and 280 nm. […] Then, the concentration of CT-DNA was determined from the absorbance at 260 nm using an extinction coefficient of 6600 M^–1cm^–1. The tested TSC and DOX were dissolved in DMSO to a concentration of 8.35 mM, which was then used as the stock solution for preparing the various concentrations (25, 12.5, 6 and 3 µM) in 1 mL in 10 mM of Tris-HCl (pH 7.9). Afterwards, 18 µM CT-DNA was added to the prepared solutions, which were incubated for 1.5 h at 37° C with occasional vortexing. The absorption spectra were measured using a Hitachi U-2900 spectrophotometer in range of 200–500 nm. All absorption spectra were imported and compared in OriginPro 8.0.

[7] = test system: p21; assay: Western blot of p21; type: cell-based, human; details: HCT116, 1 µM
Method: (§4) The HCT116 cells were seeded in 3 cm Petri dishes (Nunc) at a density of 0.5·10^6 cells/well and incubated overnight. The next day, solutions of TSC (1 μM) and DOX (5 μM) were added and the cells incubated for 24 or 48 h. Cells were harvested by trypsinization and washed with cold PBS. Next, the cells were centrifuged and suspended in an RIPA buffer (Thermo Scientific) containing Halt Protease Inhibitor Cocktail (Thermo Scientific), Halt Phosphatase Inhibitor Cocktail (Thermo Scientific) along with 0.5 M EDTA and lysed for 20 min on ice. Then, the lysates were sonicated, centrifuged at 10,000 rpm for 10 min at 4° C and the supernatants were collected for further analysis. The protein concentration was determined using a Micro BCA™ Protein Assay Kit (Thermo Scientific) according to the manufacturer’s instructions. Equal amounts of the proteins (20 μg) were electrophoresed on SDS-Page gels and transferred onto a nitrocellulose membranes. The membranes were blocked in 5% non-fat milk prepared in PBS containing 0.1% Tween-20 (TPBS) for 1 h. After blocking, the membranes were incubated with specific primary antibodies: cdc2 (#POH1, Cell Signaling), p21^Waf1/Cip1 (#12D1, Cell Signaling), p53 (#1C12, Cell Signaling) and β-Actin (#8H10D10, Cell Signaling) overnight at 4° C, then washed and incubated with horseradish peroxidase (HRP)-conjugated secondary antibodies for 1h at room temperature. All of antibodies were diluted 1:1000 in 5% milk in TPBS. Finally, the membranes were washed and incubated with a SuperSignal™ West Pico Chemiluminescent Substrate (Thermo Scientific). The chemiluminescence signals were captured using a ChemiDoc™ XRS+ System (BioRad). The experiments were performed at least three times. Densitometric analysis was performed using ImageJ 1.41 software (Wayne Rasband, National Institutes of Health, USA).

[8] = test system: NHDF; parameters: method as in PMID 25329549; details: 96 h incubation, MTS; cited from earlier work
[9] = test system: Ndrg1; assay: mRNA expression (Real-Time PCR) of Ndrg1; type: cell-based, human; details: HCT116, TSC 1 µM, 24 h
Method: as §3

[10] = test system: cdc2; assay: Western blot of cdc2; type: cell-based, human; details: HCT116, 1 µM
Method: as §4

[11] = test system: CAT; assay: mRNA expression (Real-Time PCR) of CAT; type: cell-based, human; details: HCT116, TSC 1 µM, after the first 12 h
Method: as §3

[12] = test system: NHDF; assay: MTS cytotoxicity assay, normal fibroblasts; type: cell-based, human; details: 96 h incubation
Method: as §1

[13] = 96 h, 20 µM CuSO4 added, read-out: Activity - IC50 MCF-7+ Cu^2+
[14] = 96 h, 20 µM FeCl3 added, read-out: Activity - IC50 MCF-7+ Fe^3+
[15] = 96 h incubation, MTS, read-out: Activity - IC50 MCF-7
[16] = 96 h, 20 µM CuSO4 added, read-out: Activity - IC50 HCT116+ Cu^2+
[17] = 96 h, 20 µM FeCl3 added, read-out: Activity - IC50 HCT116+ Fe^3+

| Compound | IC50 [1, 13] [nM] | IC50 [1, 14] [nM] | IC50 [1, 15] [nM] | IC50 [2, 16] [nM] | IC50 [2, 17] [nM] | IC50 [3] [nM] | level of ROS, normalized to untreated cells [4] | mRNA expression of MnSOD [5] | % hypochromism [6] [%] | Changes in absorbance [6] | Δε [6] [M⁻¹ cm⁻¹] | blue/red shift [6] [nm] | expression of p21 protein (densitometric analysis) [7] | IC50 [8] [nM] | mRNA expression of Ndrg1 [9] | expression of cdc2 protein (densitometric analysis) [10] | IC50 ([2]; 96 h incubation, MTS, read-out: Activity - IC50 HCT116) [nM] | improvement in cytotoxicity after interacting with Cu^2+ ([2]; HCT116 cells, 20 µM CuSO4) | mRNA expression of CAT [11] | IC50 [12] [nM] |
| --- | --- | --- | --- | --- | --- | --- | --- | --- | --- | --- | --- | --- | --- | --- | --- | --- | --- | --- | --- | --- |
| S=C(NN=C(c1ccccn1)c1ccccn1)N1CCN(c2cnccn2)CC1 [Compound 3c] | 4.41 ± 1.5 | 16.6 ± 2.25 | 25.6 ± 6.74 | 4.95 ± 1.64 | 29.5 ± 3.69 | 37.8 ± 3.05 | only a minute increase | large drop | 28.5 | hypochromism | 3220.0 | 2 | marked up-regulation | 13.85 ± 0.03 | strongest | strongest decreasing effect | – | – | – | – |
| FC(F)(F)c1cnc(N2CCN(C(=S)NN=Cc3ccc4ccccc4n3)CC2)c(Cl)c1 [Compound 1c] | 4.48 ± 1.18 | 39.1 ± 6.51 | 17.2 ± 2.71 | 7.19 ± 1.84 | 70.8 ± 7.28 | – | – | – | 22.6 | hypochromism | 2695.6 | 4 | marked up-regulation | – | – | – | 72.1 ± 9.4 | more than a ten-fold increase | higher | 17100 |

Reference: PMC5915149, “The role of oxidative stress in activity of anticancer thiosemicarbazones” (Oncotarget, 2018)
